{"source": "patent US12016948B2", "about": "“Micromotors and nanomotors for gastrointestinal diagnosis and treatment applications” (The Regents of the University of California, priority 2017, dated 2024)", "system": "H. pylori Sydney strain 1 (HPSS1)", "test": "In vitro bactericidal activity against H. pylori", "format": "cell-based", "conditions": "Helicobacter pylori; kills 3 logs (99.9%) of bacteria; samples pretreated in 0.1 N HCl 1 h; 24 h incubation; read-out: minimal bactericidal concentration (MBC)", "protocol": "To mimic the gastric environment, for example, samples were treated in 0.1 N HCl for 1 h prior to incubation with bacteria. This also ensured the dissolution of micromotors and consecutive drug release. […] Specifically, it was determined that the minimal bactericidal concentration (MBC) values of the samples, defined as the minimal concentration of an antimicrobial agent that kills 3 logs (99.9%) of the bacteria. […] Moreover, bare Mg-based micromotors with corresponding amount of motors were used as negative controls. […] Overall, FIG. 13D verifies that the activity of the loaded drug was not compromised compared to free drug. The example findings validate the potential use of these drug-loaded micromotors for therapeutic applications. In Vitro Anti-H. pylori Activity. H. pylori Sydney strain 1 (HPSS1) was cultured from frozen stock and routinely maintained on Columbia agar supplemented with 5% (vol/vol) laked horse blood at 37° C. under microaerobic conditions (e.g., 10% CO2, 85% N2, and 5% 02). For example, broth cultures of H. pylori were prepared by subculturing fresh colonies from agar plates into Brain heart infusion (BHI) supplemented with 5% fetal bovine serum (FBS) and incubated overnight at 37° C. under microaerobic conditions with moderate reciprocal shaking. […] The plates were cultured for 4 days before the colony-forming unit (CFU) of H. pylori was quantified. […]"}
{"smiles": "CC[C@H]1OC(=O)[C@H](C)[C@@H](O[C@H]2C[C@@](C)(OC)[C@@H](O)[C@H](C)O2)[C@H](C)[C@@H](O[C@@H]2O[C@H](C)C[C@H](N(C)C)[C@H]2O)[C@](C)(OC)C[C@@H](C)C(=O)[C@H](C)[C@@H](O)[C@]1(C)O", "note": "[free CLR, clarithromycin]", "values": [{"measurement": "MBC", "value": 0.25, "unit": "µg/mL"}]}
